One assay can be described thus: Inhibitory concentration against protein phosphatase 1 (PP1) using phosphorylase-a assay.
Usually IC50 stands for the midpoint of a concentration-inhibition curve. The molecule `CO[C@@H](Cc1ccccc1)[C@@H](C)/C=C(C)/C=C/[C@H](NC(C)=O)[C@H](C)C(=O)N[C@H](C)C(=O)O` [(R)-2-((4E,6E)-(2S,3S,8S,9S)-3-Acetylamino-9-methoxy-2,6,8-trimethyl-10-phenyl-deca-4,6-dienoylamino)-propionic acid] had an IC50 of 1 µM.
Same read-out and setting: in the case of `CO[C@@H](Cc1ccccc1)[C@@H](C)/C=C(C)/C=C/[C@H](NC(C)=O)[C@H](C)C(=O)NCC(=O)O` [((4E,6E)-(2S,3S,8S,9S)-3-Acetylamino-9-methoxy-2,6,8-trimethyl-10-phenyl-deca-4,6-dienoylamino)-acetic acid] it was 5.6 µM; in that of `CO[C@@H](Cc1ccccc1)[C@@H](C)/C=C(C)/C=C/[C@H](NC(C)=O)[C@H](C)C(=O)N[C@@H](C)C(=O)O` [(S)-2-((4E,6E)-(2S,3S,8S,9S)-3-Acetylamino-9-methoxy-2,6,8-trimethyl-10-phenyl-deca-4,6-dienoylamino)-propionic acid], 170 µM.

The nature of the next assay: Inhibitory concentration against protein phosphatase 1 (PP1) using pNPP assay.
Take `COC(=O)[C@@H]1CCCN1C(=O)[C@@H](C)[C@H](/C=C/C(C)=C/[C@H](C)[C@H](Cc1ccccc1)OC)NC(C)=O` [(S)-1-((4E,6E)-(2S,3S,8S,9S)-3-Acetylamino-9-methoxy-2,6,8-trimethyl-10-phenyl-deca-4,6-dienoyl)-pyrrolidine-2-carboxylic acid methyl ester]: the IC50 is greater than 100 µM.
Same read-out and setting: in the case of `CO[C@@H](Cc1ccccc1)[C@@H](C)/C=C(C)/C=C/[C@H](NC(C)=O)[C@H](C)C(=O)N1[C@@H](C(=O)O)CC[C@H]1C(=O)O` [(2R,5S)-1-((4E,6E)-(2S,3S,8S,9S)-3-Acetylamino-9-methoxy-2,6,8-trimethyl-10-phenyl-deca-4,6-dienoyl)-pyrrolidine-2,5-dicarboxylic acid] it was greater than 50 µM.
The same measure, in the same setting: then `CC(=O)N[C@@H](/C=C/C(C)=C/c1ccc(-c2ccccc2)cc1)[C@H](C)C(=O)N[C@H](C)C(=O)O` [(R)-2-((4E,6E)-(2S,3S)-3-Acetylamino-7-biphenyl-4-yl-2,6-dimethyl-hepta-4,6-dienoylamino)-propionic acid], with greater than 100 µM; and `CO[C@@H](Cc1ccccc1)[C@@H](C)/C=C(C)/C=C/[C@H](NC(C)=O)[C@H](C)C(=O)N1C[C@H](C(=O)O)C[C@@H]1C(=O)O` [(2R,4R)-1-((4E,6E)-(2S,3S,8S,9S)-3-Acetylamino-9-methoxy-2,6,8-trimethyl-10-phenyl-deca-4,6-dienoyl)-pyrrolidine-2,4-dicarboxylic acid], with greater than 100 µM; and `CO[C@@H](Cc1ccccc1)[C@@H](C)/C=C(C)/C=C/[C@H](NC(C)=O)[C@H](C)C(=O)N1CCCC1` [N-[(2E,4E)-(1S,6S,7S)-7-Methoxy-4,6-dimethyl-1-((S)-1-methyl-2-oxo-2-pyrrolidin-1-yl-ethyl)-8-phenyl-octa-2,4-dienyl]-acetamide], with greater than 100 µM.
On the same count and under the same terms, then `CO[C@@H](Cc1ccccc1)[C@@H](C)/C=C(C)/C=C/[C@H](NC(C)=O)[C@H](C)C(=O)N1CCC[C@@H]1C(=O)O` [(R)-1-((4E,6E)-(2S,3S,8S,9S)-3-Acetylamino-9-methoxy-2,6,8-trimethyl-10-phenyl-deca-4,6-dienoyl)-pyrrolidine-2-carboxylic acid], with greater than 55 µM; and `CC(=O)N[C@@H](/C=C/C(C)=C/CCCc1ccccc1)[C@H](C)C(=O)N[C@H](C)C(=O)O` [(R)-2-((4E,6E)-(2S,3S)-3-Acetylamino-2,6-dimethyl-10-phenyl-deca-4,6-dienoylamino)-propionic acid], with greater than 100 µM; and `CO[C@@H](Cc1ccccc1)[C@@H](C)/C=C(C)/C=C/[C@H](NC(C)=O)[C@H](C)C(=O)N[C@H](C)C(=O)O` [(R)-2-((4E,6E)-(2S,3S,8S,9S)-3-Acetylamino-9-methoxy-2,6,8-trimethyl-10-phenyl-deca-4,6-dienoylamino)-propionic acid], with 25 µM.
`CO[C@@H](Cc1ccccc1)[C@@H](C)/C=C(C)/C=C/[C@H](NC(C)=O)[C@H](C)C(=O)N(CC(=O)O)CC(=O)O` [[((4E,6E)-(2S,3S,8S,9S)-3-Acetylamino-9-methoxy-2,6,8-trimethyl-10-phenyl-deca-4,6-dienoyl)-carboxymethyl-amino]-acetic acid] returned an IC50 greater than 100 µM.
The same measure, in the same setting: then `CO[C@@H](Cc1ccccc1)[C@@H](C)/C=C(C)/C=C/[C@H](NC(C)=O)[C@H](C)C(=O)N1C[C@H](C(=O)O)C[C@H]1C(=O)O` [(2S,4R)-1-((4E,6E)-(2S,3S,8S,9S)-3-Acetylamino-9-methoxy-2,6,8-trimethyl-10-phenyl-deca-4,6-dienoyl)-pyrrolidine-2,4-dicarboxylic acid], with greater than 100 µM; and `CO[C@@H](Cc1ccccc1)[C@@H](C)/C=C(C)/C=C/[C@H](NC(C)=O)[C@H](C)C(=O)N1C[C@@H](C(=O)O)C[C@@H]1C(=O)O` [(2R,4S)-1-((4E,6E)-(2S,3S,8S,9S)-3-Acetylamino-9-methoxy-2,6,8-trimethyl-10-phenyl-deca-4,6-dienoyl)-pyrrolidine-2,4-dicarboxylic acid], with greater than 100 µM.
The molecule `COC(=O)[C@H]1CCCN1C(=O)[C@@H](C)[C@H](/C=C/C(C)=C/[C@H](C)[C@H](Cc1ccccc1)OC)NC(C)=O` [(R)-1-((4E,6E)-(2S,3S,8S,9S)-3-Acetylamino-9-methoxy-2,6,8-trimethyl-10-phenyl-deca-4,6-dienoyl)-pyrrolidine-2-carboxylic acid methyl ester] displayed an IC50 greater than 100 µM.
The same measure, in the same setting: in the case of `CO[C@@H](Cc1ccccc1)[C@@H](C)/C=C(C)/C=C/[C@H](NC(C)=O)[C@H](C)C(=O)N1CCC[C@H]1C(=O)O` [(S)-1-((4E,6E)-(2S,3S,8S,9S)-3-Acetylamino-9-methoxy-2,6,8-trimethyl-10-phenyl-deca-4,6-dienoyl)-pyrrolidine-2-carboxylic acid] it was greater than 100 µM; in that of `CO[C@@H](Cc1ccccc1)[C@@H](C)/C=C(C)/C=C/[C@H](NC(C)=O)[C@H](C)C(=O)N1C[C@H](O[Si](C(C)C)(C(C)C)C(C)C)C[C@@H]1C(=O)O` [(2R,4R)-1-((4E,6E)-(2S,3S,8S,9S)-3-Acetylamino-9-methoxy-2,6,8-trimethyl-10-phenyl-deca-4,6-dienoyl)-4-triisopropylsilanyloxy-pyrrolidine-2-carboxylic acid], greater than 100 µM; in that of `CO[C@@H](Cc1ccccc1)[C@@H](C)/C=C(C)/C=C/[C@H](NC(C)=O)[C@H](C)C(=O)N1[C@H](C(=O)O)CC[C@H]1C(=O)O` [(2S,5S)-1-((4E,6E)-(2S,3S,8S,9S)-3-Acetylamino-9-methoxy-2,6,8-trimethyl-10-phenyl-deca-4,6-dienoyl)-pyrrolidine-2,5-dicarboxylic acid], greater than 50 µM.
Still for that read-out and setting: in the case of `CC(=O)N[C@@H](/C=C/C(C)=C/c1ccccc1Cc1ccccc1)[C@H](C)C(=O)N[C@H](C)C(=O)O` [(R)-2-[(4E,6E)-(2S,3S)-3-Acetylamino-7-(2-benzyl-phenyl)-2,6-dimethyl-hepta-4,6-dienoylamino]-propionic acid] it was greater than 100 µM.

The values above are taken from BindingDB's records for doi:10.1016/s0960-894x(03)00588-2 (University of California Irvine, 2003).
